Literature values in patent US20050065128A1, “2-alkylidene-19-nor-vitamin D derivatives for the treatment of hypogonadism or andropause” (Pfizer Inc, priority 2003, published 2005).
Where two headings read alike, the source gives them in different places.

Experiments:
HL-60 cells = settings: method of Ostrem et al.
[1] = system: Intestinal Calcium Transport; settings: intraperitoneal, male weanling rats on vitamin D-deficient low-calcium diet, 24 h after last dose, mean ± SEM
[2] = system: Serum Calcium (Bone Calcium Mobilization); settings: for Serum Calcium (mg/100 ml): intraperitoneal, male weanling rats on vitamin D-deficient low-calcium diet, 24 h after last dose, mean ± SEM; for activity on bone calcium mobilization (serum calcium) relative to 1,25-(OH)2D3 (native hormone): chronic 7-day dosing in rats, fold of the native hormone

SMILES | inducing differentiation of HL-60 cells to the monocyte (HL-60 cells) | Intestinal Calcium Transport (S/M) ([1]; 130 pmol/day for 7 days) | Intestinal Calcium Transport (S/M) ([1]; 260 pmol/day for 7 days) | Serum Calcium (mg/100 ml) ([2]; 130 pmol/day for 7 days) | Serum Calcium (mg/100 ml) ([2]; 260 pmol/day for 7 days) | activity on bone calcium mobilization (serum calcium) relative to 1,25-(OH)2D3 (native hormone) [2]
C=C1[C@H](O)CC(=C/C=C2\CCC[C@]3(C)[C@@H]([C@H](C)CCCC(C)(C)O)CC[C@@H]23)C[C@H]1O [2-Methylene-19-Nor-1,25-(OH)2D3, 1α,25-dihydroxy-2-methylene-19-nor-vitamin D3] | activity similar to 1,25-(OH)2D3 | no intestinal calcium transport activity | no intestinal calcium transport activity | extremely strong bone calcium mobilization | extremely strong bone calcium mobilization | 10-100 times
C=C1[C@H](O)CC(=C/C=C2\CCC[C@]3(C)[C@@H]([C@@H](C)CCCC(C)(C)O)CC[C@@H]23)C[C@H]1O [2-Methylene-19-Nor-20S-1,25-(OH)2D3, (20S)-1α,25-dihydroxy-2-methylene-19-nor-vitamin D3] | extremely potent | no significant change | no significant change | – | – | at least 10 times
